PMC6748984, “The coral Platygyra verweyi exhibits local adaptation to long-term thermal stress through host-specific physiological and enzymatic response” (Scientific Reports, 2019)
Read-outs that look alike come from different tables or passages of the source.

What was measured:
[1] = tested on: T1, MDH (malate dehydrogenase, major isozyme, DEAE peak II) of P. verweyi from WLT; assay: NADH oxidation, absorbance at […] nm; assay type: biochemical, Platygyra verweyi; conditions: 100 mM phosphate pH 7.0, about 27 °C, read-out: apparent Km
T1 construct: gene MDH1; native, purified from host tissue extract of symbiotic coral; about 38 kDa by SDS-PAGE, native about 64 kDa, dimer

[2] = tested on: T2, MDH (malate dehydrogenase, major isozyme, DEAE peak II) of P. verweyi from NPP-OL; assay: NADH oxidation, absorbance at […] nm; assay type: biochemical, Platygyra verweyi; conditions: 100 mM phosphate pH 7.0, about 27 °C, read-out: apparent Km
T2 construct: gene MDH1; native, purified from host tissue extract of symbiotic coral; about 39 kDa by SDS-PAGE, native about 67 kDa, dimer

[3] = NADH varied 38-95 µM, OAA fixed (1 mM [sic])
[4] = OAA varied 14-29 µM, NADH fixed (3 mM as printed)

Row | Km [1, 3] | Km [2, 3] | Km [1, 4] | Km [2, 4] | Compound
1 | 12.7 µM | 7.5 µM | – | – | NC(=O)C1=CN([C@@H]2O[C@H](COP(=O)(O)OP(=O)(O)OC[C@H]3O[C@@H](n4cnc5c(N)ncnc54)[C@H](O)[C@@H]3O)[C@@H](O)[C@H]2O)C=CC1 [NADH]
2 | – | – | 5.7 µM | 9.4 µM | O=C(O)CC(=O)C(=O)O [oxaloacetate]
